Measured values published in patent US12398154B2, “Azaquinazoline pan-KRas inhibitors” (Mirati Therapeutics, Inc., priority 2020, dated 2025).
Read-outs that look alike come from different tables or passages of the source.

How the values were obtained:
KRas G13D = molecular target: T1, KRas G13D (Homo sapiens, UniProt P01116, G13D); experiment: KRas binding assay (TR-FRET displacement);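 note: One-hour room temperature incubation before TR-FRET reading, IC50 from a four-parameter curve fit to percent-of-control data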
T1 construct: Biotinylated KRas (corresponding to amino acids 1-169, produced at Accelegan Inc.); biotin (biotinylated); purchased Accelegan Inc
T1 sequence (P01116 1-169 isoform P01116-2 G13D): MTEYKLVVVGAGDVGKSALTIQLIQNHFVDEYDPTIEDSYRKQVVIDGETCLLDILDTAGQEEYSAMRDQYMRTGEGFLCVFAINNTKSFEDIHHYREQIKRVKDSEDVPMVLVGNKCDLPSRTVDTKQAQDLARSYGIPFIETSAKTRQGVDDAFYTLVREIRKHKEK
Description: (§2) The ability of a compound to bind to KRas was measured using a TR-FRET displacement assay. […] After a 60-minute incubation at room temperature, the reaction was measured using a BMG LABTECH CLARIO star Plus via TR-FRET. […] The POC values were fit to a 4-parameter IC50 equation and the IC50 value reported.

KRas Q61H = molecular target: T2, KRas Q61H (Homo sapiens, UniProt P01116, Q61H); experiment: KRas binding assay (TR-FRET displacement);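 note: TR-FRET signal read after one hour at room temperature, IC50 derived by four-parameter fitting of percent-of-control values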
T2 construct: Biotinylated KRas (corresponding to amino acids 1-169, produced at Accelegan Inc.); biotin (biotinylated); purchased Accelegan Inc
T2 sequence (P01116 1-169 isoform P01116-2 Q61H): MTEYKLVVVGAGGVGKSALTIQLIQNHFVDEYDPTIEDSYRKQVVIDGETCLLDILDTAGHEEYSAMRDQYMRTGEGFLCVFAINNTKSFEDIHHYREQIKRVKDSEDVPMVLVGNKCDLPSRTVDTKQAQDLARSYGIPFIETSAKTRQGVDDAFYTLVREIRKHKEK
Description: as §2

[1] = system: phospho-ERK in A549 (G12S) cells; experiment: Inhibition of KRas-mediated phosphorylation of ERK (in-cell western); assay type: cell-based; conditions: Homo sapiens, 3 hours compound, phospho-ERK normalized to GAPDH
Outline: (§1)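 Cells treated 3 h with compounds (0.5% DMSO), fixed in formaldehyde and methanol-permeabilized. In-cell western for phospho-ERK (Thr202/Tyr204) normalized to GAPDH, as % of DMSO control; IC50 by 4-parameter fit.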

[2] = system: phospho-ERK in AsPC-1 (G12D) cells; experiment: as above; assay type: cell-based; conditions: 3 hours compound, phospho-ERK normalized to GAPDH
Outline: as §1

[3] = system: phospho-ERK in HCT116 (G13D) cells; experiment: as above; assay type: cell-based; conditions: Homo sapiens, HCT-116, 3 hours compound, phospho-ERK normalized to GAPDH
Outline: as §1

[4] = system: phospho-ERK in MKN1 (WTdep) cells; experiment: as above; assay type: cell-based; conditions: Homo sapiens, MKN-1, 3 hours compound, phospho-ERK normalized to GAPDH
Outline: as §1

[5] = system: phospho-ERK in NCI-H358 (G12C) cells; experiment: as above; assay type: cell-based; conditions: Homo sapiens, 3 hours compound, phospho-ERK normalized to GAPDH
Outline: as §1

[6] = system: phospho-ERK in NCI-H460 (Q61H) cells; experiment: as above; assay type: cell-based; conditions: 3 hours compound, phospho-ERK normalized to GAPDH
Outline: as §1

[7] = system: phospho-ERK in NCI-H727 (G12V) cells; experiment: as above; assay type: cell-based; conditions: 3 hours compound, phospho-ERK normalized to GAPDH
Outline: as §1

[8] = system: phospho-ERK in PSN-1 (G12R) cells; experiment: as above; assay type: cell-based; conditions: Homo sapiens, PSN1, 3 hours compound, phospho-ERK normalized to GAPDH
Outline: as §1

KRas G12D = KRas G12D (Homo sapiens, UniProt P01116, G12D); experiment: biochemical;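 note: TR-FRET displacement binding assay on KRas, read after a one-hour incubation at room temperature, IC50 fitted from percent-of-control values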
Sequence of KRas G12D (P01116 1-169 isoform P01116-2 G12D): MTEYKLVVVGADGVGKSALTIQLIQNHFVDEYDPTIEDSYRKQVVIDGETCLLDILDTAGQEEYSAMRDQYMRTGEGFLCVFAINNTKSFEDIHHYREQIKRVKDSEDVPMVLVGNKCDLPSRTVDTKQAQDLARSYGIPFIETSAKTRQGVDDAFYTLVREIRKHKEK
Description: as §2

KRas G12V [9] = molecular target: T3, KRas G12V (Homo sapiens, UniProt P01116, G12V); experiment: biochemical;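 note: KRas binding measured by TR-FRET displacement at room temperature, IC50 fitted from percent of control values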
T3 sequence (P01116 1-169 isoform P01116-2 G12V): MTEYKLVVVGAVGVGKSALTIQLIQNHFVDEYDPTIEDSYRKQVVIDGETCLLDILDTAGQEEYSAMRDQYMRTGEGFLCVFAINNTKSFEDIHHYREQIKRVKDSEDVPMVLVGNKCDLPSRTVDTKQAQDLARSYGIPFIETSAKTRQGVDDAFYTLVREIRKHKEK
Description: as §2

KRas G12R [10] = molecular target: T4, KRas G12R (Homo sapiens, UniProt P01116, G12R); experiment: biochemical;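 note: TR-FRET displacement assay of compound binding to KRas, read after one hour at room temperature, potency from a four-parameter fit of percent-of-control values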
T4 sequence (P01116 1-169 isoform P01116-2 G12R): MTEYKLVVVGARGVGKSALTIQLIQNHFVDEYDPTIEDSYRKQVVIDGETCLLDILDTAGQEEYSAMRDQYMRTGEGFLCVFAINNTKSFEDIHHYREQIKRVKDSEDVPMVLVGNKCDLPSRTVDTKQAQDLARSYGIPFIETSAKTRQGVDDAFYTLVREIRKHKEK
Description: as §2

KRas G12A = KRas G12A (Homo sapiens, UniProt P01116, G12A); experiment: biochemical;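 note: binding to KRas measured by TR-FRET displacement after one hour at room temperature, IC50 from a four-parameter fit of percent-of-control values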
Sequence of KRas G12A (P01116 1-169 isoform P01116-2 G12A): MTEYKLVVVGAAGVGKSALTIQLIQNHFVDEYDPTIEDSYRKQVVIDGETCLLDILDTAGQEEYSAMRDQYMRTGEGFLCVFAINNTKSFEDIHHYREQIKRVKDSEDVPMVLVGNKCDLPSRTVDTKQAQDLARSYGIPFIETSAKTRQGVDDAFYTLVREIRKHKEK
Description: as §2

KRas G12S = KRas G12S (Homo sapiens, UniProt P01116, G12S); experiment: biochemical;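 note: TR-FRET displacement binding to KRas, read after one hour incubation at room temperature, IC50 from four-parameter fit of percent of control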
Sequence of KRas G12S (P01116 1-169 isoform P01116-2 G12S): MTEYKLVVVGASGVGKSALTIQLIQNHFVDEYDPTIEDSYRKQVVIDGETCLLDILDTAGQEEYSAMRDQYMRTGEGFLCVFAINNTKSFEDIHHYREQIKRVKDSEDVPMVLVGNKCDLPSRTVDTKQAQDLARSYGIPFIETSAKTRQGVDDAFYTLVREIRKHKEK
Description: as §2

KRas G12C = KRas G12C (Homo sapiens, UniProt P01116, G12C); experiment: biochemical;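 note: binding to KRas assessed by TR-FRET displacement after one hour incubation at room temperature, potency fitted from percent-of-control values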
Sequence of KRas G12C (P01116 1-169 isoform P01116-2 G12C): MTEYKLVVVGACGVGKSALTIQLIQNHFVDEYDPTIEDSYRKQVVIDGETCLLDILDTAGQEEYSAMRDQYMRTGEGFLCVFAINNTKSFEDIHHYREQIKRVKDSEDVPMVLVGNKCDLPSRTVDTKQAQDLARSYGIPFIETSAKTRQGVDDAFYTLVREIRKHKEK
Description: as §2

KRas WT = KRas WT (Homo sapiens, UniProt P01116); experiment: biochemical;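 note: binding to KRas read as TR-FRET displacement after a one-hour room-temperature incubation, IC50 derived from percent-of-control values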
Sequence of KRas WT (P01116 1-169 isoform P01116-2): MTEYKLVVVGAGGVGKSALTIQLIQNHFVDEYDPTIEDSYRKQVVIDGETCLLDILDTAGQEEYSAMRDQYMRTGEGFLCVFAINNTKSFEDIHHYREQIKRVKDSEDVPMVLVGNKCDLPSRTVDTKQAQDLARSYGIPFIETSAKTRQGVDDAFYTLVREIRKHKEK
Description: as §2

pERK in MKN1 cells = experiment: Inhibition of KRas phosphorylation of ERK (Cisbio HTRF pERK assay); conditions: Homo sapiens, MKN-1, 3 h, read-out: Inhibition (HTRF IC50) of KRas-mediated Phosphorylation of ERK, MKN1
pERK in PSN1 cells = experiment: as above; conditions: Homo sapiens, PSN1, 3 h, read-out: Inhibition (HTRF IC50) of KRas-mediated Phosphorylation of ERK, PSN1
pERK in ASPC1 cells = experiment: as above; conditions: Homo sapiens, ASPC1, read-out: Inhibition (HTRF IC50) of KRas-mediated Phosphorylation of ERK, AsPC-1
pERK in H727 cells = experiment: as above; conditions: Homo sapiens, NCI-H727, read-out: Inhibition (HTRF IC50) of KRas-mediated Phosphorylation of ERK, H727
pERK in A549 cells = experiment: as above; conditions: Homo sapiens, A549, read-out: Inhibition (HTRF IC50) of KRas-mediated Phosphorylation of ERK, A549
pERK in H460 cells = experiment: as above; conditions: Homo sapiens, NCI-H460, read-out: Inhibition (HTRF IC50) of KRas-mediated Phosphorylation of ERK, H460
pERK in HCT116 cells = experiment: as above; conditions: Homo sapiens, HCT-116, read-out: Inhibition (HTRF IC50) of KRas-mediated Phosphorylation of ERK, HCT116
pERK in H358 cells = experiment: as above; conditions: Homo sapiens, NCI-H358, read-out: Inhibition (HTRF IC50) of KRas-mediated Phosphorylation of ERK, H358
KRas G12V [11] = molecular target: T3, KRas G12V
Description: as §2

KRas G12R [12] = molecular target: T4, KRas G12R
Description: as §2

## C#Cc1c(F)ccc2cc(O)cc(-c3ncc4c(N5CCC[C@@](C)(O)C5)nc(OC[C@@]56CCCN5C[C@H](F)C6)nc4c3F)c12 [Example 13]
KRas G13D
  IC50: ≤ 2 nM
KRas Q61H
  IC50: ≤ 2 nM
[1]
  IC50: 140 nM
[2]; Homo sapiens, ASPC1, 3 h
  IC50: 18 nM
[3]
  IC50: 42 nM
[4]
  IC50: 10 nM
[5]
  IC50: 11 nM
[6]; Homo sapiens, NCI-H460, 3 h
  IC50: 13 nM
[7]; Homo sapiens, NCI-H727, 3 h
  IC50: 44 nM
[8]
  IC50: 773 nM
KRas G12D
  IC50: ≤ 2 nM
KRas G12V [9]
  IC50: ≤ 2 nM
KRas G12R [10]
  IC50: ≤ 2 nM
KRas G12A
  IC50: ≤ 2 nM
KRas G12S
  IC50: ≤ 2 nM
KRas G12C
  IC50: ≤ 2 nM
KRas WT
  IC50: ≤ 2 nM
pERK in MKN1 cells
  IC50: 5 nM
pERK in PSN1 cells
  IC50: 1090 nM
pERK in ASPC1 cells
  IC50: 4 nM
pERK in H727 cells
  IC50: 13 nM
pERK in A549 cells
  IC50: 43 nM
pERK in H460 cells
  IC50: 27 nM
pERK in HCT116 cells
  IC50: 33 nM

## CCc1c(F)ccc2cc(O)cc(-c3ncc4c(N5CCC[C@@](C)(O)C5)nc(OC[C@@H]5CCCN5C)nc4c3F)c12 [Example 28, (3R)-1-[7-(8-ethyl-7-fluoro-3-hydroxy-1-naphthyl)-8-fluoro-2-[[(2S)-1-methylpyrrolidin-2-yl]methoxy]pyrido[4,3-d]pyrimidin-4-yl]-3-methyl-piperidin-3-ol]
KRas G13D
  IC50: 3 nM
KRas Q61H
  IC50: 3 nM
[1]
  IC50: 523 nM
[2]; Homo sapiens, ASPC1, 3 h
  IC50: 78 nM
[3]
  IC50: 153 nM
[4]
  IC50: 24 nM
[5]
  IC50: 60 nM
[6]; Homo sapiens, NCI-H460, 3 h
  IC50: 54 nM
[7]; Homo sapiens, NCI-H727, 3 h
  IC50: 308 nM
[8]
  IC50: ≥ 10000 nM
KRas G12D
  IC50: 3 nM
KRas G12V [9]
  IC50: ≤ 2 nM
KRas G12R [10]
  IC50: 3 nM
KRas G12A
  IC50: ≤ 2 nM
KRas G12S
  IC50: ≤ 2 nM
KRas G12C
  IC50: ≤ 2 nM
KRas WT
  IC50: 3 nM
pERK in MKN1 cells
  IC50: 21 nM
pERK in PSN1 cells
  IC50: 7250 nM
pERK in ASPC1 cells
  IC50: 20 nM
pERK in H727 cells
  IC50: 159 nM
pERK in A549 cells
  IC50: 156 nM
pERK in H460 cells
  IC50: 101 nM
pERK in HCT116 cells
  IC50: 155 nM

## C#Cc1c(F)ccc2cc(O)cc(-c3ncc4c(N5CCOCC(C)(O)C5)nc(OC[C@@]56CCCN5C[C@H](F)C6)nc4c3F)c12 (stereo partly shown) [Example 149]
[1]
  IC50: 83 nM
[2]; Homo sapiens, ASPC1, 3 h
  IC50: 9 nM
[3]
  IC50: 292 nM
[4]
  IC50: 16 nM
[5]
  IC50: 10 nM
[6]; Homo sapiens, NCI-H460, 3 h
  IC50: 71 nM
[7]; Homo sapiens, NCI-H727, 3 h
  IC50: 206 nM
[8]
  IC50: 1760 nM
KRas G12D
  IC50: 4 nM
KRas G12V [9]
  IC50: ≤ 2 nM
KRas G12R [10]
  IC50: 3 nM
pERK in ASPC1 cells
  IC50: 25 nM
pERK in H727 cells
  IC50: 111 nM
pERK in A549 cells
  IC50: 290 nM
pERK in H460 cells
  IC50: 180 nM
pERK in HCT116 cells
  IC50: 276 nM

## CCc1c(F)ccc2cc(O)cc(-c3ncc4c(N5CCCC6(CC(=O)N6)C5)nc(OC[C@@]56CCCN5C[C@H](F)C6)nc4c3F)c12 (stereo partly shown) [Example 57]
KRas G13D
  IC50: 3 nM
KRas Q61H
  IC50: ≤ 2 nM
[1]
  IC50: 668 nM
[2]; Homo sapiens, ASPC1, 3 h
  IC50: 82 nM
[3]
  IC50: 1080 nM
[4]
  IC50: 22 nM
[5]
  IC50: 50 nM
[6]; Homo sapiens, NCI-H460, 3 h
  IC50: 119 nM
[7]; Homo sapiens, NCI-H727, 3 h
  IC50: 115 nM
[8]
  IC50: 4140 nM
KRas G12D
  IC50: ≤ 2 nM
KRas G12V [9]
  IC50: ≤ 2 nM
KRas G12R [10]
  IC50: ≤ 2 nM
pERK in ASPC1 cells
  IC50: 32 nM
pERK in H727 cells
  IC50: 55 nM
pERK in A549 cells
  IC50: 175 nM
pERK in H460 cells
  IC50: 119 nM
pERK in HCT116 cells
  IC50: 2010 nM

## CCc1c(F)ccc2cc(O)cc(-c3ncc4c(N5CC6CC(O)C(C6)C5)nc(OC[C@@]56CCCN5C[C@H](F)C6)nc4c3F)c12 (stereo partly shown) [Example 82]
[1]
  IC50: 25 nM
[2]; Homo sapiens, ASPC1, 3 h
  IC50: 18 nM
[3]
  IC50: 216 nM
[4]
  IC50: 10 nM
[5]
  IC50: 3 nM
[6]; Homo sapiens, NCI-H460, 3 h
  IC50: 180 nM
[7]; Homo sapiens, NCI-H727, 3 h
  IC50: 65 nM
[8]
  IC50: 1740 nM
KRas G12D
  IC50: ≤ 2 nM
KRas G12V [9]
  IC50: ≤ 2 nM
KRas G12R [10]
  IC50: ≤ 2 nM
pERK in MKN1 cells
  IC50: 6 nM
pERK in PSN1 cells
  IC50: 2320 nM
pERK in ASPC1 cells
  IC50: 15 nM
pERK in H727 cells
  IC50: 16 nM
pERK in A549 cells
  IC50: 15 nM
pERK in H460 cells
  IC50: 22 nM
pERK in HCT116 cells
  IC50: 106 nM
pERK in H358 cells
  IC50: 10 nM

## CCc1c(F)ccc2cc(O)cc(-c3ncc4c(N5C[C@H](O)C[C@@H](O)C5)nc(OC[C@@]56CCCN5C[C@H](F)C6)nc4c3F)c12 [Example 296, (3R,5R)-1-(7-(8-ethyl-7-fluoro-3-hydroxynaphthalen-1-yl)-8-fluoro-2-(((2R,7aS)-2-fluorohexahydro-1H-pyrrolizin-7a-yl)methoxy)pyrido[4,3-d]pyrimidin-4-yl)piperidine-3,5-diol]
[2]
  IC50: 2200 nM
[6]
  IC50: 619 nM
[7]
  IC50: 2080 nM
KRas G12V [11]
  IC50: ≤ 2 nM
KRas G12R [12]
  IC50: ≤ 2 nM
KRas G12D
  IC50: 4 nM
pERK in MKN1 cells
  IC50: 53 nM
pERK in PSN1 cells
  IC50: ≥ 10000 nM
